Where a SMILES comes first, the peptide text is derived from it. Bridges are numbered along the chain shown (N, C = ends).
Experiments:
[1] = test system: A549 (human lung carcinoma cells); assay type: cell-based; conditions: MTT after 48 h, DMEM/F12 with 10% FBS, mean ± SD of at least three independent experiments
Protocol: (§1) Cytotoxic activities of PM III, its isoforms, and tachyplesins against seven human cell lines were evaluated. Four cancer (HL-60 acute promyelocytic leukemia, HeLa cervix adenocarcinoma, SK-BR-3 breast adenocarcinoma, A549 lung carcinoma), one transformed (HEK 293T transformed human embryonic kidney), and two normal human cell lines (HEF human embryonic fibroblasts and NHA normal human astrocytes) were used for these experiments. Cytotoxicity was measured by incubating the cells with serial dilutions of PM I, PM II, PM III, TP I, TP II, or TP III samples followed by MTT assay after 48 h. The half-maximal inhibitory concentrations (IC50) were measured as the peptide concentration at which cell viability was reduced by 50% in comparison to untreated cells (Table 3).
The following tumor and transformed cell lines were used in this study: HL-60 (acute promyelocytic leukemia), HeLa (human cervix adenocarcinoma cells), SK-BR-3 (human breast adenocarcinoma cells), A549 (human lung carcinoma cells), HEK 293T (transformed human embryonic kidney cells), HEF (human embryonic fibroblasts), and NHA (normal human astrocytes) were used as normal cell lines. Tumor and transformed cell lines were obtained from the American Type Culture Collection (ATCC; www.atcc.org). Primary cells HEF (normal human embryonic fibroblasts derived from human embryonic stem cells) and NHA (normal human astrocytes derived from human fetal brain tissue) were obtained and cultured according to the corresponding protocol. Briefly, cells were cultured in DMEM/F12 (1:1) or RPMI-1640 medium containing 10% fetal bovine serum (Invitrogen, USA) at 37 °C in the atmosphere containing 5% CO2 and 95% air according to standard mammalian tissue culture protocols and using a sterile technique. All cell lines were tested by using the LookOut® Mycoplasma PCR Detection Kit (Sigma-Aldrich, St. Louis, MO, USA) according to the manufacturer’s protocol and found to be free of Mycoplasma infection.
The colorimetric 3-(4,5-dimethylthiazol-2-yl)-2,5-diphenyltetrazolium bromide (MTT) dye reduction assay was used to determine the cytotoxicity of the polyphemusins and tachyplesins. Cells (3 × 10^3–6 × 10^3 per well) were placed into 96-well plates in Dulbecco’s modified Eagle’s medium (DMEM/F12) supplemented with 10% fetal bovine serum (FBS). After incubation in the atmosphere containing 5% CO2 and 95% air at 37 °C overnight, the media were discarded, and polyphemusins or tachyplesins solutions were added to the cell cultures up to final concentrations of 2.5, 5, 10, 25, and 50 μM in a final volume of 0.1 mL DMEM/F12 with 10% FBS. HL-60 cells (4 × 10^4 in 50 μL) were added to two-time serial dilutions of polyphemusins solutions at a final concentration of 1.25, 2.5, 5, 10, 25, and 50 μM in 50 μL RPMI-1640 with 10% FBS. 48 hours later, 20 μL of MTT (5 mg/mL) was added into each well and the plates were incubated for 3 h at 37 °C. The plates with HL-60 cells were centrifuged for 10 min at 300 g. The media were discarded and 0.1 mL of dimethyl sulfoxide and isopropanol mixture at a ratio of 1:1 (v/v) was added to each well to dissolve the crystallized formazan. The absorbance at 570 nm was measured by a microplate reader (Eppendorf, Hamburg, Germany).

[2] = test system: HL-60 cells; assay: Annexin V-FITC/propidium iodide double staining and flow cytometry; assay type: cell-based, human; conditions: for double-stained cells, Q2-2 (AV+PI+, late apoptotic/necrotic): 4 h
Source text: To further investigate the effect of PM III on human cells, we performed annexin V-FITC/propidium iodide double staining with subsequent flow cytometric analysis. Annexin V-FITC binds to phosphatidylserine, which is exposed on the outer leaflet of the cellular plasma membrane at the initial stages of apoptosis, whereas propidium iodide (PI) preferentially stains nuclei of dead cells. Therefore, a combination of annexin V-FITC and PI assays allows differentiation between early apoptotic and late apoptotic/necrotic cell populations. PM III was used at two final concentrations of 2.5 and 5 μM. In order to elucidate the predominant mechanism of the PM III action, we applied a widely used caspase inhibitor, Z-VAD-FMK [23].
Cell death analysis with fluorescein isothiocyanate conjugated annexin V (annexin V-FITC)/propidium iodide double staining and dead cells counting with flow cytometry were performed 4 h after addition of polyphemusin III up to a final concentration of 2.5 or 5 μM. The Annexin V-FITC Apoptosis Detection Kit (BD Biosciences, Franklin Lakes, NJ, USA) was used according to the manufacturer’s protocol on a NovoCyte flow cytometer (ACEA Biosciences, San Diego, CA, USA). Each experiment was performed in triplicate. The apoptosis inducer camptothecin (Sigma-Aldrich, St. Louis, MO, USA) and the general caspase inhibitor, Z-VAD-FMK (BD Biosciences, Franklin Lakes, NJ, USA), were used. All flow cytometry experiments were performed twice.

[3] = test system: human cell lines; assay: MTT cytotoxic activity assay, IC50 summarised over cell lines; assay type: cell-based; conditions: all human cells tested; MTT 48 h; read-out: IC50 range on human cancer, transformed, and normal cell lines
Protocol: as §1
The colorimetric 3-(4,5-dimethylthiazol-2-yl)-2,5-diphenyltetrazolium bromide (MTT) dye reduction assay was used to determine the cytotoxicity of the polyphemusins and tachyplesins. Cells (3 × 10^3–6 × 10^3 per well) were placed into 96-well plates in Dulbecco’s modified Eagle’s medium (DMEM/F12) supplemented with 10% fetal bovine serum (FBS). […] The absorbance at 570 nm was measured by a microplate reader (Eppendorf, Hamburg, Germany).

[4] = test system: Gram-positive and Gram-negative bacteria; assay: Antimicrobial assay, MIC summarised over the panel of strains; assay type: cell-based; conditions: E. coli ML35p, K. pneumoniae (CI 287) and S. aureus 209P
Protocol: Bacterial test cultures were grown in the Mueller-Hinton (MH) medium at 37 °C to mid-log phase and then diluted with the 2 x MH medium supplemented with 1.8% NaCl. 50 µL of the bacterial suspension with a final cell concentration of 10^6 CFU/mL were added to aliquots of 50 µL of the peptide solutions and serially diluted with sterilized 0.1% bovine serum albumin in 96-well flat-bottom polystyrene microplates (Eppendorf, Hamburg, Germany). Bacterial cells were incubated for 24 h at 37 °C and 900 rpm on the plate thermoshaker (Biosan, Riga, Latvia). The minimum inhibitory concentrations (MIC) were determined as the lowest peptide concentration that prevented growth of a test microorganism observed as visible turbidity. The results were expressed as median values of three independent triplicated experiments. Assessment of antimicrobial activities of the recombinant PM III, other polyphemusins, and tachyplesins was conducted against Gram-negative (Escherichia coli ML-35p, Klebsiella pneumoniae (clinical isolate, CI 287), Pseudomonas aeruginosa PAO1) and Gram-positive (Staphylococcus aureus ATCC 29213, Staphylococcus aureus 209P, Bacillus subtilis B-886, Micrococcus luteus B-1314) bacteria.

CC(C)[C@@H]1NC(=O)[C@H](CCCNC(=N)N)NC(=O)[C@H](Cc2ccccc2)NC(=O)[C@@H](NC(=O)[C@H](Cc2c[nH]c3ccccc23)NC(=O)[C@H](CCCNC(=N)N)NC(=O)[C@@H](N)CCCNC(=N)N)CSSC[C@@H](C(=O)N[C@@H](CCCNC(=N)N)C(=O)O)NC(=O)[C@H](CCCCN)NC(=O)[C@H](CCCNC(=N)N)NC(=O)[C@H](Cc2ccc(O)cc2)NC(=O)[C@@H]2CSSC[C@H](NC1=O)C(=O)N[C@@H](Cc1ccc(O)cc1)C(=O)N[C@@H](CCCCN)C(=O)NCC(=O)N[C@@H](Cc1ccccc1)C(=O)N2 [PM II, polyphemusin II] (H-RRWCFRVCYKGFCYRKCR-OH; disulfide 4-17, 8-13 (inferred); N-terminus assumed)
IC50 [1]: 10.8 ± 1.9 µM

CC[C@H](C)[C@@H]1NC(=O)CNC(=O)[C@H](CCCNC(=N)N)NC(=O)[C@H](Cc2ccc(O)cc2)NC(=O)[C@@H]2CSSC[C@H](NC1=O)C(=O)N[C@@H](Cc1ccc(O)cc1)C(=O)N[C@@H](CCCNC(=N)N)C(=O)N[C@@H](CCCNC(=N)N)C(=O)N[C@H](C(=O)N[C@@H](CCCNC(=N)N)C(=O)O)CSSC[C@H](NC(=O)[C@H](Cc1c[nH]c3ccccc13)NC(=O)[C@@H](N)CCCCN)C(=O)N[C@@H](Cc1ccccc1)C(=O)N[C@@H](CCCNC(=N)N)C(=O)N[C@@H](C(C)C)C(=O)N2 [TP I, tachyplesin I] (H-KWCFRVCYRGICYRRCR-OH; disulfide 3-16, 7-12 (inferred); N-terminus assumed)
IC50 [1]: 26.5 ± 1.2 µM

CC[C@H](C)[C@@H]1NC(=O)CNC(=O)[C@H](CCCNC(=N)N)NC(=O)[C@H](Cc2ccc(O)cc2)NC(=O)[C@@H]2CSSC[C@H](NC1=O)C(=O)N[C@@H](Cc1ccc(O)cc1)C(=O)N[C@@H](CCCNC(=N)N)C(=O)N[C@@H](CCCCN)C(=O)N[C@H](C(=O)N[C@@H](CCCNC(=N)N)C(=O)O)CSSC[C@H](NC(=O)[C@H](Cc1c[nH]c3ccccc13)NC(=O)[C@@H](N)CCCCN)C(=O)N[C@@H](Cc1ccccc1)C(=O)N[C@@H](CCCNC(=N)N)C(=O)N[C@@H](C(C)C)C(=O)N2 [TP III, tachyplesin III] (H-KWCFRVCYRGICYRKCR-OH; disulfide 3-16, 7-12 (inferred); N-terminus assumed)
IC50 [1]: 15.3 ± 1 µM

CC(C)[C@@H]1NC(=O)[C@H](CCCNC(=N)N)NC(=O)[C@H](Cc2ccccc2)NC(=O)[C@@H](NC(=O)CNC(=O)[C@H](CCCNC(=N)N)NC(=O)[C@@H](N)CCCNC(=N)N)CSSC[C@@H](C(=O)N[C@@H](CCCNC(=N)N)C(=O)O)NC(=O)[C@H](CCCNC(=N)N)NC(=O)[C@H](CCC(N)=O)NC(=O)[C@H](Cc2ccccc2)NC(=O)[C@@H]2CSSC[C@H](NC1=O)C(=O)N[C@@H](Cc1ccc(O)cc1)C(=O)N[C@@H](CCCNC(=N)N)C(=O)NCC(=O)N[C@@H](Cc1ccccc1)C(=O)N2 [PM III, polyphemusin III] (H-RRGCFRVCYRGFCFQRCR-OH; disulfide 4-17, 8-13 (inferred); N-terminus assumed)
double-stained cells, Q2-2 (AV+PI+, late apoptotic/necrotic) ([2]; HL-60, 2.5 µM, 50 μM Z-VAD-FMK added): > 30% | double-stained cells, Q2-2 (AV+PI+, late apoptotic/necrotic) ([2]; HL-60, 2.5 µM, no Z-VAD-FMK): > 40% | double-stained cells, Q2-2 (AV+PI+, late apoptotic/necrotic) ([2]; HL-60, 5 µM, 50 μM Z-VAD-FMK added): > 70% | double-stained cells, Q2-2 (AV+PI+, late apoptotic/necrotic) ([2]; HL-60, 5 µM, no Z-VAD-FMK): > 80% | influence of the caspase inhibitor Z-VAD-FMK on the effect of the substance (annexin V-FITC/PI staining) ([2]; HL-60, 4 h of incubation, 50 μM Z-VAD-FMK): almost not affected | IC50 [3]: < 10 µM | reduction in activity compared to PM I, TP I, and TP III [4]: 4 fold

CC[C@H](C)[C@@H]1NC(=O)CNC(=O)[C@H](CCCNC(=N)N)NC(=O)[C@H](Cc2ccc(O)cc2)NC(=O)[C@@H]2CSSC[C@H](NC1=O)C(=O)N[C@@H](Cc1ccc(O)cc1)C(=O)N[C@@H](CCCNC(=N)N)C(=O)N[C@@H](CCCCN)C(=O)N[C@H](C(=O)N[C@@H](CCCNC(=N)N)C(=O)O)CSSC[C@H](NC(=O)[C@H](Cc1c[nH]c3ccccc13)NC(=O)[C@@H](N)CCCNC(=N)N)C(=O)N[C@@H](Cc1ccccc1)C(=O)N[C@@H](CCCNC(=N)N)C(=O)N[C@@H](C(C)C)C(=O)N2 [TP II, tachyplesin II] (H-RWCFRVCYRGICYRKCR-OH; disulfide 3-16, 7-12 (inferred); N-terminus assumed)
IC50 [1]: 28.1 ± 1.7 µM

CC(C)[C@@H]1NC(=O)[C@H](CCCNC(=N)N)NC(=O)[C@H](Cc2ccccc2)NC(=O)[C@@H](NC(=O)[C@H](Cc2c[nH]c3ccccc23)NC(=O)[C@H](CCCNC(=N)N)NC(=O)[C@@H](N)CCCNC(=N)N)CSSC[C@@H](C(=O)N[C@@H](CCCNC(=N)N)C(=O)O)NC(=O)[C@H](CCCCN)NC(=O)[C@H](CCCNC(=N)N)NC(=O)[C@H](Cc2ccc(O)cc2)NC(=O)[C@@H]2CSSC[C@H](NC1=O)C(=O)N[C@@H](Cc1ccc(O)cc1)C(=O)N[C@@H](CCCNC(=N)N)C(=O)NCC(=O)N[C@@H](Cc1ccccc1)C(=O)N2 [PM I, polyphemusin I] (H-RRWCFRVCYRGFCYRKCR-OH; disulfide 4-17, 8-13 (inferred); N-terminus assumed)
IC50 [1]: 8.8 ± 1.3 µM

— publication PMC6315362, “Cytotoxic Potential of the Novel Horseshoe Crab Peptide Polyphemusin III” (Marine Drugs, 2018)
